In data set [1] the test system is fibroblast. As to the kind of experiment: Cytotoxicity on human cells, automated nuclei counting: fibroblast. In kind it is cell-based. Particulars: exposed 24 h to 48 h, 0.1 to 25 μM. The protocol:
(§1) Cytotoxicity: This method is based on an automated imaging analysis. 4.10^3 cells were cultivated on 96-well plates and left for 24 hours so as to bind, to spread and proliferate.
(§2) All the cell lines were cultivated in a DMEM or RPMI (Invitrogen) medium. All these media were completed with antibiotics (penicillin-streptomycin) (Lonza) and 10% by volume of fetal calf serum (Invitrogen). The cells were cultivated at 37° C. with 5% of CO2. The treatments with the molecules to be tested were carried out with increasing concentrations. The control experiments were also carried out by using suitable dilutions of DMSO (maximum 1% DMSO).

Data set [2] relates to MDA-MB 231 (breast). As to the kind of experiment: Cytotoxicity on human cells, automated nuclei counting: MDA-MB 231. The note with it: MDA-MB 231 cells, exposed 24 h to 48 h, 0.1 to 25 μM. In kind it is cell-based. The protocol:
as §1, §2

For data set [3], the target named is DYRK1A (Homo sapiens, UniProt Q13627). As to the kind of experiment: DYRK1A kinase inhibition (Woodtide substrate).
The subject of data set [4] is HCT 116 (colon). As to the kind of experiment: Cytotoxicity on human cells, automated nuclei counting: HCT 116. In kind it is cell-based. The note with it: HCT 116 cells, exposed 24 h to 48 h, 0.1 to 25 μM. Here is the method: as §1, §2
The test system of data set [5] is Huh7 (liver). As to the kind of experiment: Cytotoxicity on human cells, automated nuclei counting: Huh7. In kind it is cell-based. The note with it: Huh-7, exposed 24 h to 48 h, 0.1 to 25 μM. The protocol:
as §1, §2

The test system of data set [6] is NCI (lung). As to the kind of experiment: Cytotoxicity on human cells, automated nuclei counting: NCI. In kind it is cell-based. Particulars: exposed 24 h to 48 h, 0.1 to 25 μM. The protocol:
as §1, §2

For data set [7], the system named is PC3 (prostate). As to the kind of experiment: Cytotoxicity on human cells, automated nuclei counting: PC3. Format: cell-based. Particulars: PC-3, exposed 24 h to 48 h, 0.1 to 25 μM. Here is the method:
as §1, §2

The test system of data set [8] is Caco (colon). As to the kind of experiment: Cytotoxicity on human cells, automated nuclei counting: Caco. Particulars: exposed 24 h to 48 h, 0.1 to 25 μM. Format: cell-based. Here is the method:
as §1, §2

Data set [9] deals with GSK-3αβ. As to the kind of experiment: GSK-3 kinase inhibition (GS-1 substrate). Particulars: read-out: IC50 μM Kinases GSK3, buffer A, 30° C., 15 μM ATP.
The target in data set [10] is T1, CDK5/D25 (Homo sapiens, UniProt Q00535).
T1 construct: made in house
T1 sequence (Q00535 whole entry): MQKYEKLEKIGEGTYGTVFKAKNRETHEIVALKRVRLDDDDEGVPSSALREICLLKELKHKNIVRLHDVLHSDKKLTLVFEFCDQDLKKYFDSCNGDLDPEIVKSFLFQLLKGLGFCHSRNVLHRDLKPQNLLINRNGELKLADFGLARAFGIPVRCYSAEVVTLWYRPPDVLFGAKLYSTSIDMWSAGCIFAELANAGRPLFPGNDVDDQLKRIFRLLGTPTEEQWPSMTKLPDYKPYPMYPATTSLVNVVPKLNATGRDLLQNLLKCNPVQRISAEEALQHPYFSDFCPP
T1 sequence (Q15078 99-307 partner limits assumed): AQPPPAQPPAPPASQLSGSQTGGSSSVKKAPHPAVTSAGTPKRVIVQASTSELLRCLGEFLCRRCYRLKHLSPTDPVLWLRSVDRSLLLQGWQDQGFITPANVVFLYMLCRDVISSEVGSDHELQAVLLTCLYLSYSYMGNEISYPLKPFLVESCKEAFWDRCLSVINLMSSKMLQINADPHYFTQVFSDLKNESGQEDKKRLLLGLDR
As to the kind of experiment: CDK5 kinase inhibition (33P-ATP, histone H1). In kind it is biochemical. The note with it: buffer C, 30° C., 15 μM ATP, read-out: IC50 μM Kinases CDK5. The protocol:
The protein kinase inhibition activities of the compounds of the invention are tested according to the following general procedure:
Buffer C: 60 mM β-glycerophosphate, 15 mM p-nitrophenyl-phosphate, 25 mM Mops (pH 7.2), 5 mM EGTA, 15 mM mgCl2, 1 mM DTT, 1 mM sodium vanadate and 1 mM phenylphosphate.
The controls were made with suitable dilutions of DMSO.
ATP (3.000 Ci/mmol.; 10 mCi/mL) in a final volume of 30 μL. After 30 mins of incubation at 30° C., 25 μL of supernatant aliquots were deposited on phosphocellulose Whatman P81 paper pieces of 2.5×3 cm, and after 20 seconds, the filters were washed five times (for at least 5 minutes each time) in a solution of 10 mL of phosphoric acid/1 litre of water. The wet filters were counted in the presence of 1 mL of scintillation fluid ACS (Amersham).

This passage reports IC50 and melting point results from patent US20120095022A1, “DERIVATIVES OF 10-AMINO-1,2,3,4-TETRAHYDROPYRIDO[2,1-A]ISOINDOL-6(10BH)-ONES, METHOD FOR PREPARATION THEREOF AND THERAPEUTIC USES THEREOF” (UNIVERSITE D'ORLEANS, priority 2009, published 2012).

Molecules are shown by their SMILES.

As usually defined, the IC50 is the midpoint of a concentration-inhibition curve. The term melting point denotes the temperature of the solid-liquid transition. For `O=C(Nc1ccc(Br)cn1)Nc1cccc2c1C1CCCCN1C2=O` (stereo not shown) [Compound 18, 1-(5-Bromopyridin-2-yl)-3-(6-oxo-1,2,3,4,6,10b-hexahydropyrido[2,1-a]isoindol-10-yl)urea], the melting point came out at 225 °C. For the same compound, in data set [1], the IC50 is greater than 25 µM. The IC50 in data set [2] is greater than 25 µM. In data set [3], this compound had an IC50 of 21000 nM. In addition, the IC50 in [4] was greater than 25 µM. The compound further displayed an IC50 in data set [5] greater than 25 µM. The IC50 in [6] was greater than 25 µM. For the same compound, the half-maximal inhibitory concentration (IC50) in data set [7] is greater than 25 µM. In addition, the IC50 in data set [8] is greater than 25 µM. Further, the IC50 in data set [9] came out at 0.076 µM. For the same compound, the 50% inhibitory concentration (IC50) in [10] is 0.13 µM.

`O=C(Nc1cccc(Br)n1)Nc1cccc2c1C1CCCCN1C2=O` (stereo not shown) [Compound 19, 1-(6-Bromopyridin-2-yl)-3-(6-oxo-1,2,3,4,6,10b-hexahydropyrido[2,1-a]isoindol-10-yl)urea] showed a melting point of 218 to 220 °C. Further, in data set [1], the half-inhibitory concentration (IC50) is greater than 25 µM. The compound further showed an IC50 in [2] greater than 25 µM. This compound displayed an IC50 in [3] of 3400 nM. In data set [4], this compound returned an IC50 greater than 25 µM. For the same compound, in [5], the IC50 is greater than 25 µM. The compound further yielded an IC50 in data set [6] greater than 25 µM. Moreover, the IC50 in data set [7] was greater than 25 µM. Also, the IC50 in [8] is greater than 25 µM. The IC50 in data set [9] was 0.043 µM. For the same compound, the half-inhibitory concentration (IC50) in [10] came out at 0.04 µM.

The compound `O=C(Nc1cccc(F)n1)Nc1cccc2c1C1CCCCN1C2=O` (stereo not shown) [Compound 23, 1-(6-Fluoropyridin-2-yl)-3-(6-oxo-1,2,3,4,6,10b-hexahydropyrido[2,1-a]isoindol-10-yl)urea] displayed a melting point of 254 °C. The compound further came in with an IC50 in data set [1] of 0.3 µM. This compound registered a half-inhibitory concentration (IC50) in [2] of 0.03 µM. The compound also registered an IC50 in data set [3] of 3500 nM. This compound also yielded an IC50 in [4] of less than 0.01 µM. In data set [5], this compound showed an IC50 of 0.1 µM. The compound further gave an IC50 in data set [6] of 0.3 µM. In [7], the IC50 turned out to be 0.03 µM. The same compound had an IC50 in data set [8] of 0.03 µM. The IC50 in data set [9] worked out at 0.026 µM. Further, the IC50 in [10] is 0.9 µM.

On to `Cc1cc(NC(=O)Nc2cccc3c2C2CCCCN2C3=O)no1` (stereo not shown) [Compound 24, 1-(5-Méthylisoxazol-3-yl)-3-(6-oxo-1,2,3,4,6,10b-hexahydropyrido[2,1-a]isoindol-10-yl)urea], for which the melting point stood at 156 °C. Moreover, in data set [1], 12 µM corresponded to half-maximal inhibition (IC50). In data set [2], this compound registered an IC50 of 3 µM. The compound further yielded an IC50 in data set [3] greater than 10000 nM. The compound also returned an IC50 in [4] of 2 µM. In data set [5], the IC50 is 3 µM. Also, in data set [6], the IC50 amounted to 10 µM. In data set [7], this compound showed an IC50 of 6 µM. Besides, it took 3 µM to reach half-maximal inhibition in data set [8] (IC50). Also, the IC50 in data set [9] was 0.033 µM. Moreover, the IC50 in data set [10] is 2.7 µM.

Take `O=C(Nc1cscn1)Nc1cccc2c1C1CCCCN1C2=O` (stereo not shown) [Compound 26, 1-(6-Oxo-1,2,3,4,6,10b-hexahydropyrido[2,1-a]isoindol-10-yl)-3-(thiazol-4-yl)urea]: the melting point was 178 to 180 °C. In [1], this compound returned an IC50 of 4 µM. The compound further displayed an IC50 in data set [2] of 0.4 µM. Also, the IC50 in data set [3] is greater than 10000 nM. In addition, the IC50 in [4] turned out to be 0.8 µM. Further, in data set [5], half-maximal inhibition (IC50) was put at 1.2 µM. In data set [6], this compound registered an IC50 of 5 µM. The IC50 in data set [7] came to 2 µM. Moreover, in data set [8], the half-maximal inhibitory concentration (IC50) worked out at 0.8 µM. Also, the IC50 in data set [9] amounted to 0.76 µM. In data set [10], the IC50 worked out at 0.43 µM.

In turn, `O=C(Nc1ccc(Br)cn1)Nc1cccc2c1C1CC3(CCN1C2=O)SCCS3` (stereo not shown) [Compound 31, 1-(5-Bromopyridin-2-yl)-3-(6′-oxo-3′,4′,6′,10b′-tetrahydro-1′H-spiro[[1,3]dithiolane-2,2′-pyrido[2,1-a]isoindole]-10′-yl)urea] yielded a melting point of 240 °C. For the same compound, in [1], the IC50 came to 8 µM. In data set [2], this compound showed an IC50 of 4 µM. The IC50 in data set [3] is no less than 10000 nM. The same compound came in with a 50% inhibitory concentration (IC50) in data set [4] of 1.2 µM. In addition, in data set [5], the IC50 is 0.8 µM. Besides, the IC50 in data set [6] came to 1.5 µM. Moreover, the IC50 in [7] turned out to be 3 µM. In data set [8], this compound gave an IC50 of 5 µM. Moreover, the IC50 in data set [9] came to 0.068 µM. The IC50 in [10] was determined as 7.3 µM.

As to `O=C(Nc1nc2ccccc2s1)Nc1cccc2c1C1CCCCN1C2=O` (stereo not shown) [Compound 34, 1-(Benzo[d]thiazol-2-yl)-3-(6-oxo-1,2,3,4,6,10b-hexahydropyrido[2,1-a]-isoindol-10-yl)urea], the melting point worked out at 260 °C. In data set [1], this compound yielded an IC50 of 2 µM. Besides, it took 1.5 µM to reach half-maximal inhibition in data set [2] (IC50). The IC50 in data set [3] is 88000 nM. For the same compound, the IC50 in data set [4] turned out to be 0.5 µM. Also, the IC50 in data set [5] amounted to 0.6 µM. In data set [6], the midpoint of inhibition, the IC50, lay at 4 µM. This compound registered an IC50 in [7] of 1 µM. The compound further gave an IC50 in data set [8] of 0.7 µM. Besides, the 50% inhibitory concentration (IC50) in data set [9] amounted to 3.5 µM. For the same compound, the concentration for half-maximal inhibition (IC50) in [10] came to 16 µM.

As for `Cc1nc(NC(=O)Nc2cccc3c2C2CCCCN2C3=O)cs1` (stereo not shown) [Compound 35, 1-(2-Methylthiazol-4-yl)-3-(6-oxo-1,2,3,4,6,10b-hexahydropyrido[2,1-a]isoindol-10-yl)urea], the melting point is 146 °C. Besides, half-maximal inhibition in data set [1] (IC50) required 0.4 µM. In data set [2], this compound gave a concentration for half-maximal inhibition (IC50) of 1.5 µM. Also, the IC50 in data set [3] is greater than 10000 nM. In addition, in data set [4], 0.6 µM corresponded to half-maximal inhibition (IC50). In data set [5], the half-inhibitory concentration (IC50) turned out to be 0.9 µM. In data set [6], inhibition was half-maximal at 3 µM (IC50). For the same compound, 1.5 µM corresponded to half-maximal inhibition in [7] (IC50). This compound also returned an IC50 in data set [8] of 0.7 µM. The half-maximal inhibitory concentration (IC50) in data set [9] is 0.12 µM. In addition, the half-maximal inhibitory concentration (IC50) in [10] is 0.53 µM.

Consider `COC1CCN2C(=O)c3cccc(NC(=O)Nc4cccc(C)n4)c3C2C1` (stereo not shown) [Compound 56, 1-(2-Methoxy-6-oxo-1,2,3,4,6,10b-hexahydropyrido[2,1-a]isoindol-10-yl)-3-(6-methylpyri-din-2-yl)urea], for which the IC50 in data set [1] was 7 µM; in data set [2], 7 µM; in [3] it was greater than 10000 nM; in [4], 3 µM; in [5], 3 µM; in [6] it was 10 µM. Further, the IC50 in data set [7] stood at 6 µM; in [8], 6 µM; in [9], 0.32 µM; in data set [10], 4.3 µM.

With `COC1CCN2C(=O)c3cccc(NC(=O)Nc4cc(C)ccn4)c3C2C1` (stereo not shown) [Compound 58, 1-(2-methoxy-6-oxo-1,2,3,4,6,10b-hexahydropyrido[2,1-a]isoindol-10-yl)-3-(4-methylpyridin-2-yl)urea], the 50% inhibitory concentration (IC50) in data set [1] was 0.5 µM; in [2], 0.3 µM; in data set [3], greater than 10000 nM; in [4], 0.03 µM; in [5], 0.1 µM; in [6] it was 0.4 µM. The IC50 in data set [7] came out at 0.4 µM; in [8], 0.5 µM; in data set [9], 0.032 µM; in [10] it was 0.32 µM.

For `O=C1c2cccc(NC(=S)Nc3ccc(Br)cn3)c2C2CCCCN12` (stereo not shown) [Compound 66, 1-(5-Bromopyridin-2-yl)-3-(6-oxo-1,2,3,4,6,10b-hexahydropyrido[2,1-a]isoindol-10-yl)thiourea], the IC50 in data set [1] was 4 µM; in data set [2], 2 µM; in data set [3], greater than 100000 nM; in [4], 3 µM; in data set [5], greater than 25 µM; in data set [6], 25 µM. Moreover, the IC50 in [7] was greater than 25 µM; in data set [8], 2 µM; in data set [9], 2.1 µM; in data set [10], 8.7 µM.
